A word on the Ki: it is a dissociation constant, usually derived from enzyme kinetics or from competition with a known ligand. The low end stands for a stronger hold on the target, the high end for a looser hold on the target.

Structures are written as SMILES.

In this experiment the target is T1, Dimer of Gag-Pol polyprotein [489-587] (Human immunodeficiency virus 1, UniProt P12497).
T1 construct: 489-587
The experiment is described as follows: Enzyme Inhibition Assay. The conditions noted are these: pH 5; 30 °C. The protocol:
The effects of the inhibitors on the activity of HIV-1 proteinase was determined by a fluorometric assay with an internally quenched fluorescent peptide substrate. Measurements were performed in 96-well plates with a Fluoroskan plate reader. Excitation and emission wavelengths were 355 and 500 nm, respectively.Data were analyzed by nonlinear regression by using SIMFIT, and an equation for tightly binding inhibitors.
`CCS(=O)(=O)c1ccc(-c2ccccc2CN2C[C@H](O)[C@@H](O)CN(Cc3ccccc3-c3ccc(S(=O)(=O)CC)cc3)S2(=O)=O)cc1` [(4S,5S)-2,7-bis({2-[4-(ethanesulfonyl)phenyl]phenyl}methyl)-4,5-dihydroxy-1,2,7-thiadiazepane-1,1-dione] returned a Ki of 5200 nM.

Molecule `O=S1(=O)N(Cc2ccccc2-c2cc3ccccc3o2)C[C@H](O)[C@@H](O)CN1Cc1ccccc1-c1cc2ccccc2o1` [(4S,5S)-2,7-bis({[2-(1-benzofuran-2-yl)phenyl]methyl})-4,5-dihydroxy-1,2,7-thiadiazepane-1,1-dione] gave a Ki of 530 nM.

Molecule `COc1ccc(-c2ccccc2CN2C[C@H](O)[C@@H](O)CN(Cc3ccccc3-c3ccc(OC)c(OC)c3)S2(=O)=O)cc1OC` [(4S,5S)-2,7-bis({[2-(3,4-dimethoxyphenyl)phenyl]methyl})-4,5-dihydroxy-1,2,7-thiadiazepane-1,1-dione] registered a Ki of 9400 nM.

On to `CC(=O)c1ccc(-c2ccccc2CN2C[C@H](O)[C@@H](O)CN(Cc3ccccc3-c3ccc(C(C)=O)cc3)S2(=O)=O)cc1` [(4S,5S)-2,7-bis({[2-(4-acetylphenyl)phenyl]methyl})-4,5-dihydroxy-1,2,7-thiadiazepane-1,1-dione], for which the Ki came to 5300 nM.

Molecule `CCCCc1ccc(-c2ccccc2CN2C[C@H](O)[C@@H](O)CN(Cc3ccccc3-c3ccc(CCCC)cc3)S2(=O)=O)cc1` [(4S,5S)-2,7-bis({[2-(4-butylphenyl)phenyl]methyl})-4,5-dihydroxy-1,2,7-thiadiazepane-1,1-dione] had a Ki of 1900 nM. This Ki lies about 2.8-fold lower than the previous one.

As for `O=S1(=O)N(Cc2ccccc2-c2ccc(F)cc2)C[C@H](O)[C@@H](O)CN1Cc1ccccc1-c1ccc(F)cc1` [(4S,5S)-2,7-bis({[2-(4-fluorophenyl)phenyl]methyl})-4,5-dihydroxy-1,2,7-thiadiazepane-1,1-dione], the affinity, expressed as Ki, was 5300 nM.

For `O=S1(=O)N(Cc2ccccc2Cc2ccccc2)C[C@H](O)[C@@H](O)CN1Cc1ccccc1Cc1ccccc1` [(4S,5S)-2,7-bis[(2-benzylphenyl)methyl]-4,5-dihydroxy-1,2,7-thiadiazepane-1,1-dione], the Ki came out at 2500 nM.

Take `O=S1(=O)N(Cc2ccccc2)C[C@H](O)[C@@H](O)CN1Cc1ccccc1` [(4S,5S)-2,7-dibenzyl-4,5-dihydroxy-1,2,7-thiadiazepane-1,1-dione]: the inhibition constant (Ki) was more than 20000 nM.

Take `CSc1ccccc1-c1ccccc1CN1C[C@H](O)[C@@H](O)CN(Cc2ccccc2-c2ccccc2SC)S1(=O)=O` [(4S,5S)-4,5-dihydroxy-2,7-bis({2-[2-(methylsulfanyl)phenyl]phenyl}methyl)-1,2,7-thiadiazepane-1,1-dione]: the affinity corresponds to a Ki of 1100 nM.

Regarding `CC(C)c1cccc(-c2ccccc2CN2C[C@H](O)[C@@H](O)CN(Cc3ccccc3-c3cccc(C(C)C)c3)S2(=O)=O)c1` [(4S,5S)-4,5-dihydroxy-2,7-bis({2-[3-(propan-2-yl)phenyl]phenyl}methyl)-1,2,7-thiadiazepane-1,1-dione], the affinity, expressed as Ki, was 3200 nM.

For `O=S1(=O)N(Cc2ccccc2-c2cccc(C(F)(F)F)c2)C[C@H](O)[C@@H](O)CN1Cc1ccccc1-c1cccc(C(F)(F)F)c1` [(4S,5S)-4,5-dihydroxy-2,7-bis({2-[3-(trifluoromethyl)phenyl]phenyl}methyl)-1,2,7-thiadiazepane-1,1-dione], the affinity corresponds to a Ki of 2400 nM.

`O=S1(=O)N(Cc2ccccc2/C=C/c2ccccc2)C[C@H](O)[C@@H](O)CN1Cc1ccccc1/C=C/c1ccccc1` [(4S,5S)-4,5-dihydroxy-2,7-bis({2-[(E)-2-phenylethenyl]phenyl}methyl)-1,2,7-thiadiazepane-1,1-dione] came in with a Ki of 2000 nM.

`COc1ccccc1-c1ccccc1CN1C[C@H](O)[C@@H](O)CN(Cc2ccccc2-c2ccccc2OC)S1(=O)=O` [(4S,5S)-4,5-dihydroxy-2,7-bis({[2-(2-methoxyphenyl)phenyl]methyl})-1,2,7-thiadiazepane-1,1-dione] gave an inhibition constant (Ki) of 5100 nM. This Ki lies about 2.5-fold higher than the previous one.

On to `O=S1(=O)N(Cc2ccccc2CCc2ccccc2)C[C@H](O)[C@@H](O)CN1Cc1ccccc1CCc1ccccc1` [(4S,5S)-4,5-dihydroxy-2,7-bis({[2-(2-phenylethyl)phenyl]methyl})-1,2,7-thiadiazepane-1,1-dione], for which the Ki was 3000 nM.

Molecule `Cc1cccc(-c2ccccc2CN2C[C@H](O)[C@@H](O)CN(Cc3ccccc3-c3cccc(C)c3)S2(=O)=O)c1` [(4S,5S)-4,5-dihydroxy-2,7-bis({[2-(3-methylphenyl)phenyl]methyl})-1,2,7-thiadiazepane-1,1-dione] displayed a Ki of 2700 nM.

With `O=[N+]([O-])c1cccc(-c2ccccc2CN2C[C@H](O)[C@@H](O)CN(Cc3ccccc3-c3cccc([N+](=O)[O-])c3)S2(=O)=O)c1` [(4S,5S)-4,5-dihydroxy-2,7-bis({[2-(3-nitrophenyl)phenyl]methyl})-1,2,7-thiadiazepane-1,1-dione], the Ki amounted to 7400 nM.

`COc1ccc(-c2ccccc2CN2C[C@H](O)[C@@H](O)CN(Cc3ccccc3-c3ccc(OC)cc3)S2(=O)=O)cc1` [(4S,5S)-4,5-dihydroxy-2,7-bis({[2-(4-methoxyphenyl)phenyl]methyl})-1,2,7-thiadiazepane-1,1-dione] registered a Ki of 9700 nM.

`Cc1ccc(-c2ccccc2CN2C[C@H](O)[C@@H](O)CN(Cc3ccccc3-c3ccc(C)cc3)S2(=O)=O)cc1` [(4S,5S)-4,5-dihydroxy-2,7-bis({[2-(4-methylphenyl)phenyl]methyl})-1,2,7-thiadiazepane-1,1-dione] showed a Ki of 1500 nM.

`O=S1(=O)N(Cc2ccccc2-c2ccsc2)C[C@H](O)[C@@H](O)CN1Cc1ccccc1-c1ccsc1` [(4S,5S)-4,5-dihydroxy-2,7-bis({[2-(thiophen-3-yl)phenyl]methyl})-1,2,7-thiadiazepane-1,1-dione] gave a Ki of 2700 nM.

The molecule `O=S1(=O)N(Cc2ccccc2-c2ccccc2)C[C@H](O)[C@@H](O)CN1Cc1ccccc1-c1ccccc1` [(4S,5S)-4,5-dihydroxy-2,7-bis[(2-phenylphenyl)methyl]-1,2,7-thiadiazepane-1,1-dione] came in with an inhibition constant (Ki) of 2500 nM.

For the origin of these results see BindingDB's records for doi:10.1016/j.bmc.2004.10.042 (Uppsala University, 2005).
